Our source for the IC50 values is patent US20100160255A1, “SPIRO-CYCLIC COMPOUND” (Takeda Pharmaceutical Company Limited, priority 2005, published 2010).

Like-named read-outs stand apart in the source and are kept apart here.

In experiment [1] the target is T1, human ACC2 (Homo sapiens, UniProt O00763).
T1 construct: made in house; host or cells: SF-9 insect cells, recombinant baculovirus BAC-ACC2(Nd)
The experiment is described as follows: ACC2 inhibitory activity (malachite green absorbance assay, recombinant ACC2(Nd)). In kind it is biochemical. Here is the method:
The ACC2 inhibitory activity of the compound of the present invention was evaluated by the following method.
Human ACC2 gene was cloned by PCR using human skeletal muscle cDNA library (Clontech) as a template, and Primer 1 and Primer 2 shown below. Primer 1 and Primer 2 were prepared by adding recognition sequence of restriction enzymes SalI and XbaI based on the information of the base sequence (Genbank Accession U89344) of human ACC2 gene.
PCR was performed using Pyrobest DNA polymerase (TAKARA BIO INC.). The obtained PCR product was cloned to pT7 Blue vector (Novagen) which was, after confirmation of the base sequence, digested with restriction enzymes SalI and XbaI. The obtained DNA fragment was inserted into pFAST-BacHTa (Invitrogen) digested with restriction enzymes SalI and XbaI to give expression plasmid ACC2/pFAST-BacHTa.
A plasmid for expression of ACC2 free of mitochondrial targeting sequence was prepared by PCR using the expression plasmid as a template, and Primer 3 and Primer 4 shown below.
PCR was performed using Pyrobest DNA polymerase (TAKARA BIO INC.). The obtained PCR product was cloned to pT7 Blue vector (Novagen) which was, after confirmation of the base sequence, digested with restriction enzymes SalI and AflII. The obtained DNA fragment was inserted into pFAST-BacHTa (Invitrogen) digested with restriction enzymes SalI and AflII to give expression plasmid ACC2mito7/pFAST-BacHTa.
Using the expression plasmid and BAC-TO-BAC Baculovirus Expression System (Invitrogen), virus stock BAC-ACC2 of recombinant Baculovirus (N terminal deletion (hereinafter Nd)) was prepared.
SF-9 cells (Invitrogen) were sown at 0.5×10^6 cells/mL to insect cell culture medium (2 L, Sf-900II SFM medium (Invitrogen) containing 10% fetal bovine serum (Trace), 50 mg/L gentamicin (Invitrogen) and 0.1% Pluronic F-68 (Invitrogen)), and shaking culture was performed using a Wave Bioreactor (Wave) under the conditions of 27° C., 20 rpm, rocking angle of 6° and oxygen concentration of 30%.
On day 4 of the culture, 3 L of an insect cell culture medium was added, the rocking angle was set to 8°, and the cells were further cultured. On day 5 of the culture, the recombinant Baculovirus BAC-ACC2(Nd) (100 mL) was added, 5 L of the insect cell culture medium was further added, the rocking angle was set to 11°, and the cells were cultured for 3 days. The culture medium was centrifuged at 1000×g for 10 min to give virus-infected cells. The infected cells were washed with phosphate buffered saline (Invitrogen) and centrifuged under the same conditions, and the obtained cells were cryopreserved at −80° C.
The cryopreserved cells were thawed in ice, suspended in 25 mM HEPES buffer (900 mL, pH 7.5) containing 10% Glycerol, 0.13 M NaCl, 1 mM EDTA, 25 mM sodium β-glycerophosphate, 1 mM sodium orthovanadate, added with Complete Protease Inhibitor (Boehringer). The obtained suspension was homogenized 3 times with a Polytron homogenizer (Kinematica) at 20,000 rpm for 30 seconds. The obtained cell disrupt solution was clarified by centrifugation at 31000×g for 60 min and filtrated using a 0.45 μm filter. The filtrate was passed through a column packed with Ni-NTA Super Flow Gel (QIAGEN, 60 mL) at a flow rate of about 5 mL/min. The column was washed with buffer A (50 mM HEPES containing 0.3M NaCl, pH 7.5), further washed with buffer A containing 20 mM Imidazole, and eluted with buffer A containing 100 mM Imidazole. The eluate was concentrated with Vivaspin 20 (Vivascience) having a molecular weight cut off of 30 K. The obtained concentrate was dialyzed against 50 mM HEPES (pH7.5) containing 10 mM MgCl2, 2 mM dithiothreitol, 10 mM tripotassium citrate and 0.3M NaCl. The dialysate was filtered through a 0.22 μm filter to give ACC2(Nd). The obtained ACC2(Nd) was cryopreserved at −80° C. […]

Experiment [2] has as its target T2, human ACC1 (Homo sapiens, UniProt Q13085).
T2 construct: made in house; host or cells: SF-9 insect cells, recombinant baculovirus BAC-ACC1
The experiment in a line: ACC1 inhibitory activity (malachite green absorbance assay, recombinant enzyme). In kind it is biochemical. Here is the method: The ACC1 inhibitory activity of the compound of the present invention was evaluated by the following method.
Human ACC1 gene was cloned by PCR using human liver cDNA library (Clontech) as a template, and Primer 1 and Primer 2 shown below. Primer 1 and Primer 2 were prepared by adding recognition sequence of restriction enzymes SalI and NotI based on the information of the base sequence (Genbank Accession U19822) of human ACC1 gene.
PCR was performed using Pyrobest DNA polymerase (TAKARA BIO INC.). The obtained PCR product was cloned to pT7 Blue vector (Novagen) which was, after confirmation of the base sequence, digested with restriction enzymes SalI and NotI. The obtained DNA fragment was inserted into pFAST-BacHTc (Invitrogen) digested with restriction enzymes SalI and NotI to give expression plasmid ACC1/pFAST-BacHTc.
Using the expression plasmid and BAC-TO-BAC Baculovirus Expression System (Invitrogen), virus stock BAC-ACC1 of recombinant Baculovirus was prepared.
SF-9 cells (Invitrogen) were sown at 1×10^6 cells/mL to insect cell culture medium (1 L, Sf-900II SFM medium (Invitrogen) containing 10% fetal bovine serum (Trace), 50 mg/L gentamicin (Invitrogen) and 0.1% Pluronic F-68 (Invitrogen)), and shaking culture was performed using a 2 L volume Erlenmeyer flask at 27° C., 100 rpm.
After culturing for 24 hr, the recombinant Baculovirus BAC-ACC1 (10 mL) was added, and the mixture was further cultured for 3 days. The culture medium was centrifuged at 1000×g for 5 min to give virus-infected cells. The infected cells were washed with phosphate buffered saline (Invitrogen) and centrifuged under the same conditions, and the obtained cells were cryopreserved at −80° C.
The cryopreserved cells were thawed in ice, suspended in 25 mM HEPES buffer (100 mL, pH 7.5) containing 10% Glycerol, 0.13 M NaCl, 1 mM EDTA, 25 mM sodium β-glycerophosphate, 1 mM sodium orthovanadate, added with Complete Protease Inhibitor (Boehringer). The obtained suspension was homogenized 3 times with a Polytron homogenizer (Kinematica) at 20,000 rpm for 30 seconds. The obtained cell disrupt solution was clarified by centrifugation at 185700×g for 50 min and filtrated using a 0.45 μm filter. The filtrate was passed through a column packed with Ni-NTA Super Flow Gel (QIAGEN, 12 mL) at a flow rate of about 5 mL/min. The column was washed with buffer A (50 mM HEPES containing 0.3M NaCl, pH 7.5), further washed with buffer A containing 20 mM Imidazole, and eluted with buffer A containing 100 mM Imidazole. The eluate was concentrated with Vivaspin 20 (Vivascience) having a molecular weight cut off of 30 K. The obtained concentrate was dialyzed using Sephadex G-25 (Amersham Bioscience K.K., 358 mL) equilibrated with 50 mM HEPES (pH7.5) containing 10 mM MgCl2, 2 mM dithiothreitol, 10 mM tripotassium citrate and 0.3M NaCl. The dialysate was concentrated with Vivaspin 20 (Vivascience) having a molecular weight cut off of 30 K and the concentrate was filtered through a 0.22 μm filter to give ACC1. The obtained ACC1 was cryopreserved at −80° C.
ACC1 (0.93 mg/ml) obtained in (2) above was diluted to a concentration of 8 μg/ml with an enzyme reaction buffer (50 mM HEPES (pH7.5), 10 mM MgCl2, 10 mM tripotassium citrate, 2 mM dithiothreitol, 0.75 mg/ml fatty acid free BSA), and added to each well of a 384 well assay plate (Nunc 265196) by 10 μl. […]

Where [3] appears, read: Table 9, recombinant human ACC2(Nd), N terminal deletion, 30° C., absorbance 620 nm, read-out: IC50 (ACC2 inhibitory activity).
Setting [4] is: Table 8, recombinant human ACC1, 30° C., absorbance 620 nm, read-out: IC50 (ACC1 inhibitory activity).
Setting [5] is: Experimental Example 4, same manner as Experimental Example 2, read-out: IC50 values (ACC2 inhibitory activity).
[6] abbreviates: Experimental Example 3, same manner as Experimental Example 1, read-out: IC50 values (ACC1 inhibitory activity).

T1 sequence (O00763 117-2458 limits assumed): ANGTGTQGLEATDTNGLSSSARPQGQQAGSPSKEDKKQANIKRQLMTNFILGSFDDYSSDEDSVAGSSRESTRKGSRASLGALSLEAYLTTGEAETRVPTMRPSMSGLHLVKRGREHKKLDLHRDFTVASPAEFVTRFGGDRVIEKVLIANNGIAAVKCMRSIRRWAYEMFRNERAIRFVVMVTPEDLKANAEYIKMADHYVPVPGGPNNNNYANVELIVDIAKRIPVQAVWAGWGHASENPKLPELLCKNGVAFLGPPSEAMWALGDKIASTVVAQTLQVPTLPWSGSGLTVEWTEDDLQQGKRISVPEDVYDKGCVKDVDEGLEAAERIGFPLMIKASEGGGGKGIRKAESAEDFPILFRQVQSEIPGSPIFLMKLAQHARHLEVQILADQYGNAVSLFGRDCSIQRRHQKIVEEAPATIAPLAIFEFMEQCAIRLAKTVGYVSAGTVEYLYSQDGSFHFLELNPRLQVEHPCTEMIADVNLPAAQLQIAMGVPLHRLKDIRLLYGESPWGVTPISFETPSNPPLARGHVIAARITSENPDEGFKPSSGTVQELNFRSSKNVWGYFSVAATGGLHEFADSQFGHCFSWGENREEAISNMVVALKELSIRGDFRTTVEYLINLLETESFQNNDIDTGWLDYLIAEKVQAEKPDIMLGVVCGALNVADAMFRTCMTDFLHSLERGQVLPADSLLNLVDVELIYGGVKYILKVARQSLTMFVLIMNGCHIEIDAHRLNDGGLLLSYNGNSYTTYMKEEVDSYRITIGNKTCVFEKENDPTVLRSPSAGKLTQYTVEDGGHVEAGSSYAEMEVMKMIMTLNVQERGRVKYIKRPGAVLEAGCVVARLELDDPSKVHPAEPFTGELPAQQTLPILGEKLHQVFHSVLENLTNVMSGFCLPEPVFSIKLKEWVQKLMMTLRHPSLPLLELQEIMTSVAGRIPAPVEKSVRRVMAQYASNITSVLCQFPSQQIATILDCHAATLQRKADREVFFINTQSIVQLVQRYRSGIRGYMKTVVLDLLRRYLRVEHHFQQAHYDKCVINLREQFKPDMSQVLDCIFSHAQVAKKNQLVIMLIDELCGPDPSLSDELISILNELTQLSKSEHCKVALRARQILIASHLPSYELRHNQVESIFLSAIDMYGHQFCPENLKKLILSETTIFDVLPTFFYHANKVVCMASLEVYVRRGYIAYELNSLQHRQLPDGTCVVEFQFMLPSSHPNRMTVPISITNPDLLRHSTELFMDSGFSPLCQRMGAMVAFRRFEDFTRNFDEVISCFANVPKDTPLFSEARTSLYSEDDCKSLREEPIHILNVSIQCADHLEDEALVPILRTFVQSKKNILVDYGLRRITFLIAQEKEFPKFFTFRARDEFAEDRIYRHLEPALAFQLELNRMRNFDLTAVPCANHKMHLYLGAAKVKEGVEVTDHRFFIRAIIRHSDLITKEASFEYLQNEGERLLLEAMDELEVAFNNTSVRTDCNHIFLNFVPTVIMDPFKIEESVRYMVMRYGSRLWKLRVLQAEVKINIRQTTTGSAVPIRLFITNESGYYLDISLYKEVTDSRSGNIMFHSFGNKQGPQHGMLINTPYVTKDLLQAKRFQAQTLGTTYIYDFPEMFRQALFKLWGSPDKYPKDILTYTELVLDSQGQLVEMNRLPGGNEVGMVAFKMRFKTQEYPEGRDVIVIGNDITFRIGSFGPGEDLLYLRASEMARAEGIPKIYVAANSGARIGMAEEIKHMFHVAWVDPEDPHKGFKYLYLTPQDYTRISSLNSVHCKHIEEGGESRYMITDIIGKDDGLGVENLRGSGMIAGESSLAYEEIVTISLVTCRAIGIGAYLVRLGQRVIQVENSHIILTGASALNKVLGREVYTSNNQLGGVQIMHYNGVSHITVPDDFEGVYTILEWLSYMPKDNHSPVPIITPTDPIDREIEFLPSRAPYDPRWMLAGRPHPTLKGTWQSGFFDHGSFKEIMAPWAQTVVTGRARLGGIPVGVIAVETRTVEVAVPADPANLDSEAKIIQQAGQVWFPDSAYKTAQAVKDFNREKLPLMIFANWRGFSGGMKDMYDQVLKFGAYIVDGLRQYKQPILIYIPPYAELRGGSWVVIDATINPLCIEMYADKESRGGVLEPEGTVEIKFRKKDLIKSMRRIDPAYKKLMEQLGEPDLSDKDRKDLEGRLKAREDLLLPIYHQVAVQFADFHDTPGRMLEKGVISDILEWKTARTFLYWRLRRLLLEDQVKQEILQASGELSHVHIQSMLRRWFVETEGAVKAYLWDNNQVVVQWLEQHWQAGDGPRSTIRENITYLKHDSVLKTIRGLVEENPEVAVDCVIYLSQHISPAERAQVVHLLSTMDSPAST

Consider `CCN1CCC2(CCCN(C3CCN(C(=O)c4c5ccccc5cc5ccccc45)CC3)C2)C1=O` (stereo not drawn) [Example 1, 7-[1-(9-anthrylcarbonyl)piperidin-4-yl]-2-ethyl-2,7-diazaspiro[4.5]decan-1-one], for which the concentration for half-maximal inhibition (IC50) (usually the concentration needed to halve the response being measured) in experiment [1] (setting [3]) turned out to be 140 nM; in experiment [2] (setting [4]), 1900 nM.

In the case of `CCNC(=O)Nc1sc2ccccc2c1C(=O)N1CCC(N2CCCC3(C2)CC(C)(C)OC3=O)CC1` (stereo not drawn) [Example 36, N-(3-{[4-(3,3-Dimethyl-1-oxo-2-oxa-7-azaspiro[4.5]dec-7-yl)piperidin-1-yl]carbonyl}-1-benzothien-2-yl)-N′-ethylurea], the IC50 in experiment [1] (setting [5]) is not above 10 nM; in experiment [1] (setting [3]), 8 nM; in experiment [2] (setting [6]), not above 100 nM; in experiment [2] (setting [4]), 79 nM.

In the case of `CC1(C)CC2(CCCN(C3CCN(C(=O)c4cc(-c5cccnc5)nc5ccccc45)CC3)C2)C(=O)O1` (stereo not drawn) [Example 92, 3,3-dimethyl-7-{1-[(2-(pyridin-3-yl)quinolin-4-yl)carbonyl]piperidin-4-yl}-2-oxa-7-azaspiro[4.5]decan-1-one], the 50% inhibitory concentration (IC50) in experiment [1] (setting [3]) was determined as 110 nM; in experiment [2] (setting [4]) it was 4800 nM.

As for `CC(=O)c1cccc(-c2cc(C(=O)N3CCC(N4CCCC5(C4)CC(C)(C)OC5=O)CC3)cc(-c3cccnc3)c2)c1` (stereo not drawn) [Example 133, 7-{1-[(3′-acetyl-5-(pyridin-3-yl)biphenyl-3-yl)carbonyl]piperidin-4-yl]-3,3-dimethyl-2-oxa-7-azaspiro[4.5]decan-1-one], the IC50 is 120 nM in experiment [1] (setting [3]) and 3300 nM in experiment [2] (setting [4]).

As to `CC1(C)CC2(CN(C3CCN(C(=O)c4c5ccccc5cc5ccccc45)CC3)CCN2)C(=O)O1` (stereo not drawn) [Example 153, 9-[1-(9-anthrylcarbonyl)piperidin-4-yl]-3,3-dimethyl-2-oxa-6,9-diazaspiro[4.5]decan-1-one], the 50% inhibitory concentration (IC50) in experiment [1] (setting [3]) was 76 nM; in experiment [2] (setting [4]), 1600 nM.

`CCNC(=O)Nc1sc(-c2ccccn2)cc1C(=O)N1CCC(N2CCCC3(C2)CC(C)(C)OC3=O)CC1` (stereo not drawn) [Example 179, 1-(3-{[4-(3,3-dimethyl-1-oxo-2-oxa-7-azaspiro[4.5]dec-7-yl)piperidin-1-yl]carbonyl}-5-(pyridin-2-yl)-2-thienyl)-3-ethylurea]: the 50% inhibitory concentration (IC50) in experiment [1] (setting [5]) is not above 10 nM; in experiment [1] (setting [3]), 9 nM; in experiment [2] (setting [6]), not above 100 nM; in experiment [2] (setting [4]), 140 nM.

For `CCNC(=O)Nc1sc(-c2ccc(C(=O)O)cc2)cc1C(=O)N1CCC(N2CCCC3(C2)CC(C)(C)OC3=O)CC1` (stereo not drawn) [Example 190, 4-(4-{[4-(3,3-dimethyl-1-oxo-2-oxa-7-azaspiro[4.5]dec-7-yl)piperidin-1-yl]carbonyl}-5-[(ethylcarbamoyl)amino]-2-thienyl)benzoic acid], the IC50 in experiment [1] (setting [5]) was not above 10 nM; in experiment [1] (setting [3]), 9 nM; in experiment [2] (setting [6]), not above 100 nM; in experiment [2] (setting [4]), 80 nM.

Regarding `CCN1C(=O)OC2(CCCN(C3CCN(C(=O)c4c(NC(N)=O)sc5ccccc45)CC3)C2)C1=O` (stereo not drawn) [Example 229, 1-(3-{[4-(3-ethyl-2,4-dioxo-1-oxa-3,7-diazaspiro[4.5]dec-7-yl)piperidin-1-yl]carbonyl}-1-benzothien-2-yl)urea], the concentration for half-maximal inhibition (IC50) was determined as 49 nM in experiment [1] (setting [3]) and 290 nM in experiment [2] (setting [4]).

Consider `CCNC(=O)Nc1sc(-c2ccccn2)cc1C(=O)N1CCC(N2CCCC3(C2)OC(=O)N(CC)C3=O)CC1` (stereo not drawn) [Example 245, 1-ethyl-3-(3-{[4-(3-ethyl-2,4-dioxo-1-oxa-3,7-diazaspiro[4.5]dec-7-yl)piperidin-1-yl]carbonyl}-5-(pyridin-2-yl)-2-thienyl)urea], for which the IC50 in experiment [1] (setting [3]) came to 46 nM; in experiment [2] (setting [4]), 980 nM.

With `CCNC(=O)Nc1cnc(-c2ccccc2)cc1C(=O)N1CCC(N2CCCC3(C2)CC(C)(C)OC3=O)CC1` (stereo not drawn) [Example 301, N-(4-{[4-(3,3-dimethyl-1-oxo-2-oxa-7-azaspiro[4.5]dec-7-yl)piperidin-1-yl]carbonyl}-6-phenylpyridin-3-yl)-N′-ethylurea], the IC50 in experiment [1] (setting [3]) came to 89 nM; in experiment [2] (setting [4]), 1400 nM.

With `CCNC(=O)Nc1sc2ccccc2c1C(=O)N1CCC(N2CCCC3(CC(=O)NC3=O)C2)CC1` (stereo not drawn) [Example 311, N-(3-{[4-(1,3-dioxo-2,7-diazaspiro[4.5]dec-7-yl)piperidin-1-yl]carbonyl}-1-benzothien-2-yl)-W-ethylurea], the concentration for half-maximal inhibition (IC50) in experiment [1] (setting [3]) is 31 nM; in experiment [2] (setting [4]), 400 nM.

With `CCNC(=O)Nc1sc2ccccc2c1C(=O)N1CCC(N2CCCC3(C2)OC(=O)N(CC)C3=O)CC1` (stereo not drawn) [Example 327, N-ethyl-N′-(3-{[4-(3-ethyl-2,4-dioxo-1-oxa-3,7-diazaspiro[4.5]dec-7-yl)piperidin-1-yl]carbonyl}-1-benzothien-2-yl)urea], the 50% inhibitory concentration (IC50) in experiment [1] (setting [3]) came out at 19 nM; in experiment [2] (setting [4]) it was 200 nM.
